Values after ≈ are worked out from the molar mass of the structure shown.
Key:
Type in all cases: functional
[1] = tested on: Burkholderia pseudomallei; assay: Antimicrobial activity against Burkholderia pseudomallei KHW in presence of 31.3 uM prochlorperazine
[2] = tested on: Burkholderia pseudomallei; assay: Antimicrobial activity against Burkholderia pseudomallei KHW in presence of 7.8 uM prochlorperazine
[3] = tested on: Burkholderia pseudomallei; assay: Antimicrobial activity against Burkholderia pseudomallei KHW in presence of 31.3 uM chlorpromazine
[4] = tested on: Burkholderia pseudomallei; assay: Antimicrobial activity against Burkholderia pseudomallei KHW in presence of 15.6 uM omeprazole
[5] = tested on: Burkholderia pseudomallei; assay: Antimicrobial activity against Burkholderia pseudomallei KHW in presence of 1000 uM omeprazole
[6] = tested on: Burkholderia pseudomallei; assay: Antimicrobial activity against Burkholderia pseudomallei KHW in presence of 31.3 uM omeprazole
[7] = tested on: Burkholderia pseudomallei; assay: Antimicrobial activity against Burkholderia pseudomallei KHW in presence of 500 uM promazine
[8] = tested on: Burkholderia pseudomallei; assay: Antimicrobial activity against Burkholderia pseudomallei KHW in presence of 1000 uM prochlorperazine
[9] = tested on: Burkholderia pseudomallei; assay: Antimicrobial activity against Burkholderia pseudomallei KHW in presence of 1000 uM chlorpromazine
[10] = tested on: Burkholderia pseudomallei; assay: Antimicrobial activity against Burkholderia pseudomallei KHW in presence of 125 uM prochlorperazine
[11] = tested on: Burkholderia pseudomallei; assay: Antimicrobial activity against Burkholderia pseudomallei KHW in presence of 15.6 uM prochlorperazine
[12] = tested on: Burkholderia pseudomallei; assay: Antimicrobial activity against Burkholderia pseudomallei KHW in presence of 1000 uM promazine
[13] = tested on: Burkholderia pseudomallei; assay: Antimicrobial activity against Burkholderia pseudomallei KHW in presence of 3.9 uM prochlorperazine
[14] = tested on: Burkholderia pseudomallei; assay: Antimicrobial activity against Burkholderia pseudomallei KHW in presence of 3.9 uM chlorpromazine
[15] = tested on: Burkholderia pseudomallei; assay: Antimicrobial activity against Burkholderia pseudomallei KHW in presence of 62.5 uM chlorpromazine
[16] = tested on: Burkholderia pseudomallei; assay: Antimicrobial activity against Burkholderia pseudomallei KHW in presence of 250 uM chlorpromazine
[17] = tested on: Burkholderia pseudomallei; assay: Antimicrobial activity against Burkholderia pseudomallei KHW in presence of 62.5 uM promazine
[18] = tested on: Burkholderia pseudomallei; assay: Antimicrobial activity against Burkholderia pseudomallei KHW in presence of 125 uM promazine
[19] = tested on: Burkholderia pseudomallei; assay: Antimicrobial activity against Burkholderia pseudomallei KHW in presence of 500 uM chlorpromazine
[20] = tested on: Burkholderia pseudomallei; assay: Antimicrobial activity against Burkholderia pseudomallei KHW in presence of 500 uM prochlorperazine
[21] = tested on: Burkholderia pseudomallei; assay: Antimicrobial activity against Burkholderia pseudomallei KHW in presence of 7.8 uM promazine
[22] = tested on: Burkholderia pseudomallei; assay: Antimicrobial activity against Burkholderia pseudomallei KHW in presence of 62.5 uM omeprazole
[23] = tested on: Burkholderia pseudomallei; assay: Antimicrobial activity against Burkholderia pseudomallei KHW in presence of 7.8 uM chlorpromazine
[24] = tested on: Burkholderia pseudomallei; assay: Antimicrobial activity against Burkholderia pseudomallei KHW in presence of 500 uM omeprazole
[25] = tested on: Burkholderia pseudomallei; assay: Antimicrobial activity against Burkholderia pseudomallei KHW in presence of 125 uM omeprazole
[26] = tested on: Burkholderia pseudomallei; assay: Antimicrobial activity against Burkholderia pseudomallei KHW
[27] = tested on: Burkholderia pseudomallei; assay: Antimicrobial activity against Burkholderia pseudomallei KHW in presence of 15.6 uM chlorpromazine
[28] = tested on: Burkholderia pseudomallei; assay: Antimicrobial activity against Burkholderia pseudomallei KHW in presence of 125 uM chlorpromazine
[29] = tested on: Burkholderia pseudomallei; assay: Antimicrobial activity against Burkholderia pseudomallei KHW in presence of 3.9 uM promazine
[30] = tested on: Burkholderia pseudomallei; assay: Antimicrobial activity against Burkholderia pseudomallei KHW in presence of 7.8 uM omeprazole
[31] = tested on: Burkholderia pseudomallei; assay: Antimicrobial activity against Burkholderia pseudomallei KHW in presence of 250 uM omeprazole
[32] = tested on: Burkholderia pseudomallei; assay: Antimicrobial activity against Burkholderia pseudomallei KHW in presence of 250 uM prochlorperazine
[33] = tested on: Burkholderia pseudomallei; assay: Antimicrobial activity against Burkholderia pseudomallei KHW in presence of 250 uM promazine
[34] = tested on: Burkholderia pseudomallei; assay: Antimicrobial activity against Burkholderia pseudomallei KHW in presence of 15.6 uM promazine
[35] = tested on: Burkholderia pseudomallei; assay: Antimicrobial activity against Burkholderia pseudomallei KHW in presence of 31.3 uM promazine
[36] = tested on: Burkholderia pseudomallei; assay: Antimicrobial activity against Burkholderia pseudomallei KHW in presence of 62.5 uM prochlorperazine
[37] = tested on: Burkholderia pseudomallei; assay: Antimicrobial activity against Burkholderia pseudomallei KHW in presence of 3.9 uM omeprazole

Row | SMILES | MIC [1] [µg/mL] | MIC [2] [µg/mL] | MIC [3] [µg/mL] | MIC [4] [µg/mL] | MIC [5] [µg/mL] | MIC [6] [µg/mL] | MIC [8] [µg/mL] | MIC [9] [µg/mL] | MIC [10] [µg/mL] | MIC [11] [µg/mL] | MIC [12] [µg/mL] | MIC [13] [µg/mL] | MIC [14] [µg/mL] | MIC [15] [µg/mL] | MIC [16] [µg/mL] | MIC [17] [µg/mL] | MIC [18] [µg/mL] | MIC [19] [µg/mL] | MIC [20] [µg/mL] | MIC [21] [µg/mL] | further results
1 | CO[C@H]1C[C@H](O[C@H]2[C@H](C)[C@@H](O[C@@H]3O[C@H](C)C[C@H](N(C)C)[C@H]3O)[C@@H](C)C[C@@]3(CO3)C(=O)[C@H](C)[C@@H](O)[C@@H](C)[C@@H](C)OC(=O)[C@@H]2C)O[C@@H](C)[C@@H]1O [OLEANDOMYCIN] | 512 | > 2000 | > 2000 | > 2000 | < 0.25 | > 2000 | 64 | < 0.25 | 256 | 512 | 0.5 | > 2000 | > 2000 | 1020 | 256 | > 2000 | > 2000 | 128 | 64 | > 2000 | MIC [7]: 256 µg/mL; MIC [22]: > 2000 µg/mL; MIC [23]: > 2000 µg/mL; MIC [24]: > 2000 µg/mL; MIC [25]: > 2000 µg/mL; MIC [26]: > 2000 µg/mL; MIC [27]: > 2000 µg/mL; MIC [28]: 512 µg/mL; MIC [29]: > 2000 µg/mL; MIC [30]: > 2000 µg/mL; MIC [31]: > 2000 µg/mL; MIC [32]: 128 µg/mL; MIC [33]: > 2000 µg/mL; MIC [34]: > 2000 µg/mL; MIC [35]: > 2000 µg/mL; MIC [36]: 256 µg/mL; MIC [37]: > 2000 µg/mL
2 | CN[C@@H]1[C@H](O)[C@H](NC)[C@H]2O[C@@]3(O)C(=O)C[C@@H](C)O[C@H]3O[C@@H]2[C@H]1O [SPECTINOMYCIN] | 256 | 256 | 256 | 256 | 32 | 256 | < 0.25 | < 0.25 | 32 | 256 | < 0.25 | 256 | 256 | 256 | 128 | 256 | 256 | 32 | < 0.25 | 256 | MIC [22]: 256 µg/mL; MIC [23]: 256 µg/mL; MIC [25]: 256 µg/mL; MIC [26]: 256 µg/mL (≈ 770 µM); MIC [27]: 256 µg/mL; MIC [28]: 256 µg/mL; MIC [29]: 256 µg/mL; MIC [30]: 256 µg/mL; MIC [32]: 32 µg/mL; MIC [34]: 256 µg/mL; MIC [35]: 256 µg/mL; MIC [36]: 128 µg/mL; MIC [37]: 256 µg/mL
3 | CN[C@@H]1[C@H](O[C@H]2[C@H](O[C@H]3[C@H](O)[C@@H](O)[C@H](N=C(N)N)[C@@H](O)[C@@H]3N=C(N)N)O[C@@H](C)[C@]2(O)C=O)O[C@@H](CO)[C@H](O)[C@H]1O [STREPTOMYCIN] | 1020 | 1020 | 1020 | 1020 | < 0.25 | 1020 | 256 | < 0.25 | 1020 | 1020 | 0.5 | 1020 | 1020 | 1020 | 1020 | 1020 | 1020 | < 0.25 | 256 | 1020 | MIC [7]: 516 µg/mL; MIC [22]: 1020 µg/mL; MIC [23]: 1020 µg/mL; MIC [24]: 1020 µg/mL; MIC [25]: 1020 µg/mL; MIC [26]: 1020 µg/mL (≈ 1760 µM); MIC [27]: 1020 µg/mL; MIC [28]: 1020 µg/mL; MIC [29]: 1020 µg/mL; MIC [30]: 1020 µg/mL; MIC [31]: 1020 µg/mL; MIC [32]: 512 µg/mL; MIC [33]: 1020 µg/mL; MIC [34]: 1020 µg/mL; MIC [35]: 1020 µg/mL; MIC [36]: 1020 µg/mL; MIC [37]: 1020 µg/mL
